Test results taken from patent US6352977B1, “Substituted β-alanines” (Aventis Pharma Limited, priority 1998, dated 2002).

melting point	Structure (SMILES)
73 to 76 °C	COc1cc(CC(=O)N(C)CC(=O)N(CCCN2CCCC2=O)CCC(=O)O)ccc1NC(=O)Nc1ccccc1C
183 to 187 °C	COc1cc(CC(=O)N(C)CC(=O)N(CCC(=O)O)Cc2ccc(OC)c(OC)c2)ccc1NC(=O)Nc1ccccc1C
